Laboratory results taken from PubChem BioAssay AID1845198 (Molecular Pharmacology Branch, DTP, NCI, 2023).

Test system: 425362-245-T-J1 tumor spheroids, viability % test/control
Assay: Anticancer human tumor 425362-245-T-J1 patient-derived melanoma cell line growth inhibition
Details: spheroids with HUVEC and MSC; for IC50: curve of first compound; for viability, T/C: stronger effect = lower value
Outline: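 Complex spheroids of malignant cells with endothelial cells and mesenchymal stem cells; agents alone or combined, from near clinical Cmax (or 10 microM if unknown) down in half-log steps, 0.25% DMSO final.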

[1] = second compound 1 µM, first compound 0.00949 µM
[2] = second compound 1 µM, first compound 0.03 µM
[3] = second compound 1 µM, first compound 0.0949 µM
[4] = second compound 1 µM, first compound 0.3 µM
[5] = second compound 1 µM, first compound 0.949 µM
[6] = second compound 1 µM, first compound 3 µM
[7] = second compound 3.16 µM, first compound 0.00949 µM
[8] = second compound 3.16 µM, first compound 0.03 µM
[9] = second compound 3.16 µM, first compound 0.0949 µM
[10] = second compound 3.16 µM, first compound 0.3 µM
[11] = second compound 3.16 µM, first compound 0.949 µM
[12] = second compound 3.16 µM, first compound 3 µM
[13] = second compound 10 µM, first compound 0.00949 µM
[14] = second compound 10 µM, first compound 0.03 µM
[15] = second compound 10 µM, first compound 0.0949 µM
[16] = second compound 10 µM, first compound 0.3 µM
[17] = second compound 10 µM, first compound 0.949 µM
[18] = second compound 10 µM, first compound 3 µM
[19] = second compound 31.6 µM, first compound 0.00949 µM
[20] = second compound 31.6 µM, first compound 0.03 µM
[21] = second compound 31.6 µM, first compound 0.0949 µM
[22] = second compound 31.6 µM, first compound 0.3 µM
[23] = second compound 31.6 µM, first compound 0.949 µM
[24] = second compound 31.6 µM, first compound 3 µM
[25] = second compound 100 µM, first compound 0.00949 µM
[26] = second compound 100 µM, first compound 0.03 µM
[27] = second compound 100 µM, first compound 0.0949 µM
[28] = second compound 100 µM, first compound 0.3 µM
[29] = second compound 100 µM, first compound 0.949 µM
[30] = second compound 100 µM, first compound 3 µM
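Further: spheroids exposed to agents for 7 days.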

| SMILES | IC50 (second compound 1 µM) [µM] | IC50 (second compound 3.16 µM) [µM] | IC50 (second compound 10 µM) [µM] | IC50 (second compound 31.6 µM) [µM] | IC50 (second compound 100 µM) [µM] | viability, T/C [3] [%] | viability, T/C [4] [%] | viability, T/C [5] [%] | viability, T/C [6] [%] | viability, T/C [9] [%] | viability, T/C [10] [%] | viability, T/C [11] [%] | viability, T/C [12] [%] | viability, T/C [15] [%] | viability, T/C [16] [%] | viability, T/C [17] [%] | viability, T/C [18] [%] | viability, T/C [21] [%] | viability, T/C [22] [%] | viability, T/C [23] [%] | other results |
| --- | --- | --- | --- | --- | --- | --- | --- | --- | --- | --- | --- | --- | --- | --- | --- | --- | --- | --- | --- | --- | --- |
| CNCc1ccc(-c2cc(-c3nc(-c4ccc(S(=O)(=O)C(C)C)cc4)cnc3N)on2)cc1 + Cn1nnc2c(C(N)=O)ncn2c1=O | 0.0822 | 0.142 | 0.12 | 0.109 | 0.0637 | 45.2 | 6.29 | 3.41 | 0.13 | 72.2 | 9.15 | 3.94 | 0.13 | 61 | 9.28 | 2.96 | 0.12 | 56.2 | 7.24 | 2.97 | viability, T/C [1]: 103%; viability, T/C [2]: 89.2%; viability, T/C [7]: 99.2%; viability, T/C [8]: 93.1%; viability, T/C [13]: 111%; viability, T/C [14]: 101%; viability, T/C [19]: 95.4%; viability, T/C [20]: 105%; viability, T/C [24]: 0.11%; viability, T/C [25]: 92.7%; viability, T/C [26]: 81.9%; viability, T/C [27]: 33.1%; viability, T/C [28]: 4.28%; viability, T/C [29]: 4.13%; viability, T/C [30]: 0.16% |
| Cc1sc2c(c1C)C(c1ccc(Cl)cc1)=NC(CC(=O)Nc1ccc(O)cc1)c1nnc(C)n1-2 (stereo not given) + Cn1nnc2c(C(N)=O)ncn2c1=O | 0.0827 | 0.0864 | 0.108 | 0.108 | 0.0857 | 44.5 | 11.4 | 4.19 | 4.22 | 47.6 | 15.7 | 3.45 | 2.88 | 57.5 | 8.87 | 3.57 | 2.37 | 54.1 | 16.9 | 4 | viability, T/C [1]: 85.8%; viability, T/C [2]: 86.8%; viability, T/C [7]: 110%; viability, T/C [8]: 86.2%; viability, T/C [13]: 106%; viability, T/C [14]: 90%; viability, T/C [19]: 103%; viability, T/C [20]: 92%; viability, T/C [24]: 2.29%; viability, T/C [25]: 84.8%; viability, T/C [26]: 90.5%; viability, T/C [27]: 45.6%; viability, T/C [28]: 10.6%; viability, T/C [29]: 3.44%; viability, T/C [30]: 1.57% |
| Cn1ncnc1[C@H]1c2n[nH]c(=O)c3cc(F)cc(c23)N[C@@H]1c1ccc(F)cc1 + Cn1nnc2c(C(N)=O)ncn2c1=O | 0.0245 | 0.0135 | 0.0126 | < 0.00949 | < 0.00949 | 27 | 12.1 | 9.08 | 2.19 | 19.1 | 14.3 | 7.67 | 2.76 | 15.8 | 13.2 | 7 | 3.32 | 9.07 | 7.7 | 5.14 | viability, T/C [1]: 59.9%; viability, T/C [2]: 48.6%; viability, T/C [7]: 54.8%; viability, T/C [8]: 40.1%; viability, T/C [13]: 57.8%; viability, T/C [14]: 26.8%; viability, T/C [19]: 27.6%; viability, T/C [20]: 12%; viability, T/C [24]: 2.14%; viability, T/C [25]: 7.96%; viability, T/C [26]: 7.44%; viability, T/C [27]: 5.25%; viability, T/C [28]: 4.75%; viability, T/C [29]: 4.31%; viability, T/C [30]: 2.46% |
| O=C(c1cc(Cc2n[nH]c(=O)c3ccccc23)ccc1F)N1CCN(C(=O)C2CC2)CC1 + Cn1nnc2c(C(N)=O)ncn2c1=O | 3.1 | 3.28 | 2.52 | 2.04 | 0.233 | 88.6 | 86.2 | 71.6 | 55.6 | 97.8 | 87.7 | 83.5 | 54.6 | 101 | 85.2 | 80.2 | 45.8 | 96.5 | 83.8 | 69.7 | viability, T/C (second compound 1 µM, first compound 9.49 µM): 12%; viability, T/C (second compound 1 µM, first compound 30 µM): 6.69%; viability, T/C (second compound 3.16 µM, first compound 9.49 µM): 12.8%; viability, T/C (second compound 3.16 µM, first compound 30 µM): 7.75%; viability, T/C (second compound 10 µM, first compound 9.49 µM): 13.1%; viability, T/C (second compound 10 µM, first compound 30 µM): 6.66%; viability, T/C [24]: 44.4%; viability, T/C (second compound 31.6 µM, first compound 9.49 µM): 6.18%; viability, T/C (second compound 31.6 µM, first compound 30 µM): 6.01%; viability, T/C [27]: 68.1%; viability, T/C [28]: 43.8%; viability, T/C [29]: 26.7%; viability, T/C [30]: 10%; viability, T/C (second compound 100 µM, first compound 9.49 µM): 4.29%; viability, T/C (second compound 100 µM, first compound 30 µM): 3.96% |
